Assays:
MB-231 cells = experiment: Proliferation assay (Incucyte confluency), MB-231; type: cell-based; conditions: Homo sapiens, 96 h, 4 days, read-out: IC50, inhibition of proliferation
Experimental: (§1) COS-7, MDA-MB-231, and HepG2, were cultured in Dulbecco's modified Eagle's medium (DMEM) supplemented with 10% fetal bovine serum (Invitrogen Life Sciences, Carlsbad, CA). BT-549, OVCAR5 and OVCAR8 cells were cultured in L-Glutamine containing RPMI medium supplemented with 10% fetal calf serum (Invitrogen Life Sciences, Carlsbad, CA). The primary Human Mammary Epithelial Cells (HMEC) were cultured in mammary epithelial cell complete medium (basal medium plus rH-Insulin (5 μg/mL); L-Glutamine (6 mM); Epinephrine (1 μM); Apo-Transferrin (5 μg/mL); rH-TGF-α (0.5 ng/mL); ExtractP (0.4%); Hydrocortisone Hemisuccinate (100 ng/mL)).
(§2) 2000 cells were plated in each well of 96-well plate. The next day cells were treated with compounds and incubated in Incucyte for 4 days. Images taken every 4 hours for the duration of the time were analyzed to calculate percentage of confluency in response to the treatments. Growth inhibition was calculated as 1—(percentage of viable cells out of untreated cells).

OVCAR5 cells = experiment: Proliferation assay (Incucyte confluency), OVCAR5; type: cell-based, human; conditions: 4 days
Experimental: as §1, §2

[1] = Single dose IV and PO PK study in Han Wistar rats; type: in vivo
Experimental: (§3) C57BL/6 male mice or Han Wistar rats were used, n=3 for each administration route and compound. Single dose of each compound was administered orally (PO, 10 mg/Kg) or by intravenous administration (IV, 1 mg/Kg). Following intravenous and oral administration, blood samples (ca 0.2 mL) were collected and compound amount was measured by HLPC. For IV group, blood samples were collected at 0.083, 0.25, 0.5, 1, 2, 4, 6, 8, and 24 hours post-dose. For PO group, blood samples were collected at 0.25, 0.5, 1, 2, 4, 6, 8, and 24 hours post-dose.

[2] = tested on: Escherichia coli tester strain WP2 uvrA (pKM101); experiment: Ames test (Bacterial Reverse Mutation Test), E. coli; type: cell-based
Experimental: PD152 (compound 2) was tested for genotoxic and cytotoxic side effects by Ames test. The Ames test is a Bacterial Reverse Mutation Test of mutagenicity that utilizes Salmonella typhimurium tester strains TA98, TA100, TA1535, TA1537 and Escherichia coli tester strain WP2 uvrA (pKM101), both in the presence and absence of S9.
The compound PD152 was tested at 10 concentrations (0.032-1000 μg/plate) in the presence of, or absence of, the hepatic enzyme S9.

FABP4 = FABP4 (Homo sapiens (Human), UniProt P15090); experiment: Fluorescence (ANS) competition binding assay, FABP4; conditions: ANS displacement
Experimental: (§4) This example illustrates a two-step fluorescence binding assay study used to determine the binding affinity of the various inhibitor compounds disclosed herein with the various FABPs: FABP3, FABP4, FABP5 and FABP7. Further secondary screening studies were carried out for compounds with high binding affinities toward the FABPs and based on their ability to activate the nuclear receptors PPARα, PPARγ, or PPARδ.
(§5) Binding assays for FABP3, FABP4, FABP5 and FABP7 were carried out by fluorescence titrations. His-tagged FABPs were bacterially expressed in E. coli, purified using Ni Sepharose beads, and the equilibrium dissociation constants (Kd) that characterize their interactions with different inhibitor compounds were measured by fluorescence competition assays. The method entails two steps as described in e.g., Lin, Q. et al., “Ligand selectivity of the peroxisome proliferator-activated receptor alpha,” Biochemistry 38, 185-190, doi:10.1021/bi9816094 [pii](1999). In the first step, Kd for the association of the protein with the fluorescent fatty acid probe ANS was measured. Protein (2 μM) was titrated with ANS from a concentrated solution in DMSO. Ligand binding was monitored by following the increase in the fluorescence of the ligand upon binding to the protein, and Kd for the association of ANS with the each FABP was computed from titration curves as described in e.g., Norris, A. W. & Li, E., “Fluorometric titration of the CRABPs,” Methods Mol Biol 89, 123-139 (1998)). In the second step, Kds for binding of non-fluorescent ligands were measured by monitoring their ability to displace ANS in the binding pocket of the protein. Each FABP was precomplexed with ANS at 1:1 molar ratio and titrated with the different compounds whose binding was reflected by a decrease in probe fluorescence. Kds were extracted from the EC50 of the competition curve and the measured Kd for ANS.

FABP5 = FABP5 (Homo sapiens (Human), UniProt Q01469); experiment: Fluorescence (ANS) competition binding assay, FABP5; conditions: ANS displacement
Experimental: as §4, §5

FABP7 = FABP7 (Homo sapiens (Human), UniProt O15540); experiment: Fluorescence (ANS) competition binding assay, FABP7; conditions: ANS displacement
Experimental: as §4, §5

[3] = Single dose IV and PO PK study in C57BL/6 mice; type: in vivo; conditions: male C57BL/6 mice
Experimental: as §3

[4] = rat, plasma, intravenous 1 mg/kg
[5] = presence of S9, 0.0312 μg/plate
[6] = mouse, plasma, intravenous 1 mg/kg

Sequence of FABP7 (O15540 whole entry, species assumed): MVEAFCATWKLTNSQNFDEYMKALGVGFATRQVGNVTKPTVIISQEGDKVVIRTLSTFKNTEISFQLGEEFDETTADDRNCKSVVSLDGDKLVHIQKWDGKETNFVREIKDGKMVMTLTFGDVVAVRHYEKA
Sequence of FABP5 (Q01469 whole entry, species assumed): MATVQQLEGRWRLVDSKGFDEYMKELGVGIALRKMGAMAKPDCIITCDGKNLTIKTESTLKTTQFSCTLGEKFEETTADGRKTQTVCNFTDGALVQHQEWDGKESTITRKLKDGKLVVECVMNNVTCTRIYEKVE
Sequence of FABP4 (P15090 whole entry, species assumed): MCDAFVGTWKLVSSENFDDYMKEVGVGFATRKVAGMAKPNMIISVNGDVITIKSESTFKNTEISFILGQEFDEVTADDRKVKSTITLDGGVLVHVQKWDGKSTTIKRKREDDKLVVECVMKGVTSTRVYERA

In the case of `CC(C)Oc1nc(NC(=O)CSCC(=O)O)c(Cl)cc1Cl` [PD152, 2-((2-((3,5-dichloro-6-isopropoxypyridin-2-yl)amino)-2-oxoethyl)thio)acetic acid], the IC50 (MB-231 cells) is reported as 603 nM, the “Inhibition of OVCAR5 proliferation” value (OVCAR5 cells) is reported as “inhibited proliferation of the two cell lines in a dose-dependent manner” and the Thalf ([1]; oral 10 mg/kg) is reported as 1.13 h. It also gave a clearance [1, 4] of 16 mL/min/kg, a half-life [1, 4] of about 0.73 h and a bioavailability ([1]; rat, plasma, oral 10 mg/kg) of 141%. The Fold increase ([2]; absence of S9, 0.0312 μg/plate) was 1, the “Mean number of revertants” value ([2]; absence of S9, 0.0312 μg/plate) was 41 and the Fold increase ([2]; absence of S9, 0.1 μg/plate) was 1. For the same molecule, the “Mean number of revertants” value ([2]; absence of S9, 0.1 μg/plate) was 39, the Fold increase ([2]; absence of S9, 0.316 μg/plate) was 1 and the “Mean number of revertants” value ([2]; absence of S9, 0.316 μg/plate) was 41. For the same molecule, the Fold increase ([2]; absence of S9, 1 μg/plate) was 1, the “Mean number of revertants” value ([2]; absence of S9, 1 μg/plate) was 39 and the Fold increase ([2]; absence of S9, 3.16 μg/plate) was 1. For the same molecule, the “Mean number of revertants” value ([2]; absence of S9, 3.16 μg/plate) was 42, the Fold increase ([2]; absence of S9, 10 μg/plate) was 1 and the “Mean number of revertants” value ([2]; absence of S9, 10 μg/plate) was 40. For the same molecule, the Fold increase ([2]; absence of S9, 31.6 μg/plate) was 1, the “Mean number of revertants” value ([2]; absence of S9, 31.6 μg/plate) was 42 and the Fold increase ([2]; absence of S9, 100 μg/plate) was 1. For the same molecule, the “Mean number of revertants” value ([2]; absence of S9, 100 μg/plate) was 42, the Fold increase ([2]; absence of S9, 316 μg/plate) was 1 and the “Mean number of revertants” value ([2]; absence of S9, 316 μg/plate) was 40. The Fold increase ([2]; absence of S9, 1000 μg/plate) was 1, the “Mean number of revertants” value ([2]; absence of S9, 1000 μg/plate) was 42 and the Fold increase [2, 5] was 1. The “Mean number of revertants” value [2, 5] was 39, the Fold increase ([2]; presence of S9, 0.1 μg/plate) was 1 and the “Mean number of revertants” value ([2]; presence of S9, 0.1 μg/plate) was 42. For the same molecule, the Fold increase ([2]; presence of S9, 0.316 μg/plate) was 1, the “Mean number of revertants” value ([2]; presence of S9, 0.316 μg/plate) was 40 and the Fold increase ([2]; presence of S9, 1 μg/plate) was 1. For the same molecule, the “Mean number of revertants” value ([2]; presence of S9, 1 μg/plate) was 38, the Fold increase ([2]; presence of S9, 3.16 μg/plate) was 1 and the “Mean number of revertants” value ([2]; presence of S9, 3.16 μg/plate) was 38. For the same molecule, the Fold increase ([2]; presence of S9, 10 μg/plate) was 1, the “Mean number of revertants” value ([2]; presence of S9, 10 μg/plate) was 41 and the Fold increase ([2]; presence of S9, 31.6 μg/plate) was 1. For the same molecule, the “Mean number of revertants” value ([2]; presence of S9, 31.6 μg/plate) was 41, the Fold increase ([2]; presence of S9, 100 μg/plate) was 1 and the “Mean number of revertants” value ([2]; presence of S9, 100 μg/plate) was 39. The Fold increase ([2]; presence of S9, 316 μg/plate) was 1, the “Mean number of revertants” value ([2]; presence of S9, 316 μg/plate) was 40 and the Fold increase ([2]; presence of S9, 1000 μg/plate) was 1. For the same molecule, the “Mean number of revertants” value ([2]; presence of S9, 1000 μg/plate) was 40, the Kd (FABP4) was 18 nM and the Kd (FABP5) was 28 nM. It also gave a Kd (FABP7) of 989 nM, a Thalf ([3]; oral 10 mg/kg) of 2.6 h and a clearance [3, 6] of 16.1 mL/min/kg. It also gave a half-life [3, 6] of 3 to 4 h and a bioavailability ([3]; mouse, plasma, single oral dose 10 mg/kg) of 75%.

— US20250325529A1, “INHIBITORS OF FATTY ACID BINDING PROTEINS (FABPs), METHODS OF USE AND METHODS OF MAKING” (Celloram, inc., priority 2024, published 2025)
